According to PubChem BioAssay (NCI):
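Cultured in 96-well plates, cells were exposed to test compound for 48 hours across five concentrations. At the TGI there is no net growth.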

How the values were obtained:
Assay in all cases: NCI-60 cell line screen, 48 h
BT-549 breast = system: BT-549 breast
MOLT-4 leukemia = system: MOLT-4 leukemia
HOP-92 NSCLC = system: HOP-92 NSCLC
EKVX NSCLC = system: EKVX NSCLC
SK-OV-3 ovarian = system: SK-OV-3 ovarian
M14 melanoma = system: M14 melanoma
786-0 renal = system: 786-0 renal
OVCAR-3 ovarian = system: OVCAR-3 ovarian
SF-295 CNS = system: SF-295 CNS
LOX IMVI melanoma = system: LOX IMVI melanoma
NCI-H226 lung = system: NCI-H226 lung
HT29 colon = system: HT29 colon
MDA-MB-231 breast = system: MDA-MB-231 breast
IGROV1 ovarian = system: IGROV1 ovarian
HCC-2998 colon = system: HCC-2998 colon
PC-3 prostate = system: PC-3 prostate
NCI-H460 lung = system: NCI-H460 lung
A498 renal = system: A498 renal
SNB-75 CNS = system: SNB-75 CNS
SF-268 CNS = system: SF-268 CNS
SK-MEL-28 melanoma = system: SK-MEL-28 melanoma
CAKI-1 renal = system: CAKI-1 renal
OVCAR-8 ovarian = system: OVCAR-8 ovarian
COLO 205 colon = system: COLO 205 colon
HCT-15 colon = system: HCT-15 colon
MCF7 breast = system: MCF7 breast
DU-145 prostate = system: DU-145 prostate
NCI-H522 lung = system: NCI-H522 lung
U251 CNS = system: U251 CNS
HCT-116 colon = system: HCT-116 colon
KM12 colon = system: KM12 colon
SK-MEL-5 melanoma = system: SK-MEL-5 melanoma
RPMI-8226 leukemia = system: RPMI-8226 leukemia
SK-MEL-2 melanoma = system: SK-MEL-2 melanoma
K-562 leukemia = system: K-562 leukemia
HL-60(TB) leukemia = system: HL-60(TB) leukemia
TK-10 renal = system: TK-10 renal
NCI-H23 lung = system: NCI-H23 lung
A549 NSCLC = system: A549 NSCLC
ACHN renal = system: ACHN renal
OVCAR-5 ovarian = system: OVCAR-5 ovarian
OVCAR-4 ovarian = system: OVCAR-4 ovarian
CCRF-CEM leukemia = system: CCRF-CEM leukemia
NCI/ADR-RES ovarian = system: NCI/ADR-RES ovarian
UO-31 renal = system: UO-31 renal
HS 578T breast = system: HS 578T breast
SN12C renal = system: SN12C renal
SNB-19 CNS = system: SNB-19 CNS
MDA-MB-435 = system: MDA-MB-435
T-47D breast = system: T-47D breast
RXF 393 renal = system: RXF 393 renal
SW-620 colon = system: SW-620 colon
MDA-N = system: MDA-N
HOP-62 NSCLC = system: HOP-62 NSCLC
UACC-62 melanoma = system: UACC-62 melanoma
SR leukemia = system: SR leukemia
UACC-257 melanoma = system: UACC-257 melanoma
DLD-1 colon = system: DLD-1 colon
HOP-18 NSCLC = system: HOP-18 NSCLC
DMS 273 small cell lung = system: DMS 273 small cell lung
MALME-3M melanoma = system: MALME-3M melanoma
M19-MEL melanoma = system: M19-MEL melanoma
SF-539 CNS = system: SF-539 CNS
LXFL 529 NSCLC = system: LXFL 529 NSCLC

COC(CC1(CCNc2ccccc2)C(=O)N(COCC[Si](C)(C)C)c2ccccc21)OC (stereo unspecified)
TGI (BT-549 breast): 32.5 µM
TGI (MOLT-4 leukemia): > 100 µM
TGI (HOP-92 NSCLC): 42.2 µM
TGI (EKVX NSCLC): 31.7 µM
TGI (SK-OV-3 ovarian): 30 µM
TGI (M14 melanoma): 6.92 µM
TGI (786-0 renal): 25.4 µM
TGI (OVCAR-3 ovarian): 31.6 µM
TGI (SF-295 CNS): 32 µM
TGI (LOX IMVI melanoma): 29.7 µM
TGI (NCI-H226 lung): 21.4 µM
TGI (HT29 colon): 30 µM
TGI (MDA-MB-231 breast): 48.4 µM
TGI (IGROV1 ovarian): 21.4 µM
TGI (HCC-2998 colon): 4.12 µM
TGI (PC-3 prostate): 27.8 µM
TGI (NCI-H460 lung): 34.4 µM
TGI (A498 renal): 47.5 µM
TGI (SNB-75 CNS): 14.3 µM
TGI (SF-268 CNS): 26.3 µM
TGI (SK-MEL-28 melanoma): 30.1 µM
TGI (CAKI-1 renal): > 62.2 µM
TGI (OVCAR-8 ovarian): 35.1 µM
TGI (COLO 205 colon): 9.09 µM
TGI (HCT-15 colon): 34.2 µM
TGI (MCF7 breast): 30.4 µM
TGI (DU-145 prostate): 64.7 µM
TGI (NCI-H522 lung): 24.2 µM
TGI (U251 CNS): > 61 µM
TGI (HCT-116 colon): 32.5 µM
TGI (KM12 colon): 23.8 µM
TGI (SK-MEL-5 melanoma): > 100 µM
TGI (RPMI-8226 leukemia): > 100 µM
TGI (SK-MEL-2 melanoma): 29.9 µM
TGI (K-562 leukemia): > 100 µM
TGI (HL-60(TB) leukemia): 98.2 µM
TGI (TK-10 renal): 28.9 µM
TGI (NCI-H23 lung): 32.9 µM
TGI (A549 NSCLC): 34.3 µM
TGI (ACHN renal): 37.1 µM
TGI (OVCAR-5 ovarian): 35 µM
TGI (OVCAR-4 ovarian): 28.6 µM
TGI (CCRF-CEM leukemia): > 31.6 µM
TGI (NCI/ADR-RES ovarian): 39.6 µM
TGI (UO-31 renal): 29.6 µM
TGI (HS 578T breast): 41.4 µM
TGI (SN12C renal): 53.6 µM
TGI (SNB-19 CNS): 33.1 µM
TGI (MDA-MB-435): 38.5 µM
TGI (T-47D breast): 56.3 µM
TGI (RXF 393 renal): 29.4 µM
TGI (SW-620 colon): > 55.3 µM
TGI (MDA-N): > 68.2 µM
TGI (HOP-62 NSCLC): 28 µM
TGI (UACC-62 melanoma): 29.8 µM
TGI (SR leukemia): > 100 µM
TGI (UACC-257 melanoma): 29.5 µM

Cc1ccc(Cl)c2c(=O)cc(-c3ccccc3)[nH]c12
TGI (MOLT-4 leukemia): > 100 µM
TGI (HOP-92 NSCLC): > 100 µM
TGI (SK-OV-3 ovarian): > 100 µM
TGI (M14 melanoma): > 100 µM
TGI (786-0 renal): > 100 µM
TGI (SF-295 CNS): > 100 µM
TGI (LOX IMVI melanoma): > 100 µM
TGI (NCI-H226 lung): > 100 µM
TGI (HT29 colon): > 100 µM
TGI (IGROV1 ovarian): > 100 µM
TGI (DLD-1 colon): > 100 µM
TGI (NCI-H460 lung): > 100 µM
TGI (SNB-75 CNS): 87.1 µM
TGI (SF-268 CNS): > 100 µM
TGI (SK-MEL-28 melanoma): > 100 µM
TGI (CAKI-1 renal): > 100 µM
TGI (HOP-18 NSCLC): > 100 µM
TGI (DMS 273 small cell lung): > 100 µM
TGI (MALME-3M melanoma): > 100 µM
TGI (OVCAR-8 ovarian): > 100 µM
TGI (COLO 205 colon): > 100 µM
TGI (HCT-15 colon): > 100 µM
TGI (M19-MEL melanoma): > 100 µM
TGI (NCI-H522 lung): > 100 µM
TGI (U251 CNS): > 100 µM
TGI (HCT-116 colon): > 100 µM
TGI (KM12 colon): > 100 µM
TGI (SK-MEL-5 melanoma): > 100 µM
TGI (RPMI-8226 leukemia): > 100 µM
TGI (SK-MEL-2 melanoma): > 100 µM
TGI (K-562 leukemia): > 100 µM
TGI (HL-60(TB) leukemia): > 100 µM
TGI (TK-10 renal): > 100 µM
TGI (NCI-H23 lung): > 100 µM
TGI (A549 NSCLC): > 100 µM
TGI (ACHN renal): > 100 µM
TGI (OVCAR-5 ovarian): > 100 µM
TGI (OVCAR-4 ovarian): > 100 µM
TGI (CCRF-CEM leukemia): > 100 µM
TGI (SF-539 CNS): > 100 µM
TGI (UO-31 renal): > 100 µM
TGI (LXFL 529 NSCLC): > 100 µM
TGI (SN12C renal): > 100 µM
TGI (RXF 393 renal): > 100 µM
TGI (SW-620 colon): > 100 µM
TGI (HOP-62 NSCLC): > 100 µM
TGI (UACC-62 melanoma): > 100 µM
TGI (SR leukemia): > 100 µM
TGI (UACC-257 melanoma): > 100 µM
